Among the data in PubChem BioAssay AID192 (DTP/NCI, 2004) are T/C values, retold here.

SMILES strings stand for the structures. “And” between values parts separate entries of the source, which are not always exact repeats. Identical values can stand only once. Toxic doses and inconclusive results are not listed.

For this test, the system named is BDF1 mice, B16 melanoma ip, median survival T/C. Description: NCI In Vivo Anticancer Drug Screen. Data for tumor model B16 Melanoma (intraperitoneal) in B6D2F1 (BDF1) mice. As to conditions: endpoint: median survival time, higher = longer survival. The gist of the method: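 Transplantable tumor model; survival or tumor size measured; reported as T/C, treated over vehicle control.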

Where [1] appears, read: dose: 25.0 mg/kg/injection, schedule: Q01DX009 (ip), vehicle: Klucel (hydroxypropylcellulose) (HPC).
The mark [2] stands for this setting: dose: 50.0 mg/kg/injection, schedule: Q01DX009 (ip), vehicle: Klucel (hydroxypropylcellulose) (HPC).
The mark [3] stands for this setting: dose: 100.0 mg/kg/injection, schedule: Q01DX009 (ip), vehicle: Klucel (hydroxypropylcellulose) (HPC).
Where [4] appears, read: dose: 6.25 mg/kg/injection, schedule: Q01DX009 (ip), vehicle: saline.
The mark [5] stands for this setting: dose: 12.5 mg/kg/injection, schedule: Q01DX009 (ip), vehicle: saline.
Setting [6] is: dose: 25.0 mg/kg/injection, schedule: Q01DX009 (ip), vehicle: saline.
[7] abbreviates: dose: 50.0 mg/kg/injection, schedule: Q01DX009 (ip), vehicle: saline with Tween-80.
[8] abbreviates: dose: 50.0 mg/kg/injection, schedule: Q01DX009 (ip), vehicle: saline.
Where [9] appears, read: dose: 100.0 mg/kg/injection, schedule: Q01DX009 (ip), vehicle: saline.
Where [10] appears, read: dose: 200.0 mg/kg/injection, schedule: Q01DX009 (ip), vehicle: saline.
Setting [11] is: dose: 200.0 mg/kg/injection, schedule: Q01DX009 (ip), vehicle: Klucel (hydroxypropylcellulose) (HPC).

Consider `CCCNC(C)(C)C(SSS)c1cccs1` (stereo unspecified), for which the T/C (dose: 4.68 mg/kg/injection, schedule: Q04DX003 (ip), vehicle: saline) was 97 % of control; the T/C (dose: 6.25 mg/kg/injection, schedule: Q01DX009 (ip), vehicle: alcohol) is 111 % of control; the T/C (dose: 9.37 mg/kg/injection, schedule: Q04DX003 (ip), vehicle: saline) is 106 % of control; the T/C (dose: 12.5 mg/kg/injection, schedule: Q01DX009 (ip), vehicle: alcohol) is 100 % of control; the T/C (dose: 18.75 mg/kg/injection, schedule: Q04DX003 (ip), vehicle: saline) is 107 % of control; the T/C (dose: 25.0 mg/kg/injection, schedule: Q01DX009 (ip), vehicle: alcohol) was 95 % of control. The T/C (dose: 50.0 mg/kg/injection, schedule: Q01DX009 (ip), vehicle: alcohol) is 91 % of control.

Consider `CCC(c1ccc(OC(=O)Cc2ccc(N(CCCl)CCCl)cc2)cc1)C(CC)c1ccc(OC(=O)Cc2ccc(N(CCCl)CCCl)cc2)cc1` (stereo unspecified), for which the T/C was 106 % of control (dose: 6.25 mg/kg/injection, schedule: Q01DX009 (ip), vehicle: Klucel (hydroxypropylcellulose) (HPC)); 110 % of control (dose: 12.5 mg/kg/injection, schedule: Q01DX009 (ip), vehicle: Klucel (hydroxypropylcellulose) (HPC)); 96 % of control under setting [1]; 88 % of control under setting [2]; 95 % of control and 98 % of control (dose: 64.0 mg/kg/injection, schedule: Q02DX009 (ip), vehicle: saline with Tween-80); 91 % of control (dose: 128.0 mg/kg/injection, schedule: Q02DX009 (ip), vehicle: saline with Tween-80). Besides, under “dose: 256.0 mg/kg/injection, schedule: Q02DX009 (ip), vehicle: saline with Tween-80”, the T/C is 92 % of control.

With `CCCC1OC(=O)C(C)O1` (stereo unspecified), the T/C is 92 % of control under setting [2] and 89 % of control under setting [3].

As for `COc1cccc2c1C(=O)c1c(O)c3c(c(O)c1C2=O)C[C@@](O)(/C(C)=N/NC(=O)c1cccc([N+](=O)[O-])c1)C[C@@H]3OC1CC(N)C(O)C(C)O1` (stereo partly specified), the T/C runs as follows: (dose: 2.0 mg/kg/injection, schedule: Q01DX001 (ip), vehicle: water) 153 % of control; (dose: 4.0 mg/kg/injection, schedule: Q01DX001 (ip), vehicle: water) 158 % of control and 164 % of control; (dose: 8.0 mg/kg/injection, schedule: Q01DX001 (ip), vehicle: water) 168 % of control and 178 % of control; (dose: 16.0 mg/kg/injection, schedule: Q01DX001 (ip), vehicle: water) 164 % of control and 184 % of control; (dose: 32.0 mg/kg/injection, schedule: Q01DX001 (ip), vehicle: water) 95 % of control.

Turning to `N#CCCCN1CCCCC1`, the T/C is 100 % of control under setting [4], 100 % of control under setting [5] and 111 % of control under setting [6].

Consider `O=S(=O)(O)c1ccc2cccc(N=Nc3c(O)ccc4ccccc34)c2c1`, for which the T/C is 105 % of control (dose: 12.5 mg/kg/injection, schedule: Q01DX009 (ip), vehicle: saline with Tween-80); 102 % of control (dose: 25.0 mg/kg/injection, schedule: Q01DX009 (ip), vehicle: saline with Tween-80); 91 % of control under setting [7].

In the case of `NC1(c2ccccc2)CCCCC1`, the T/C was 86 % of control (dose: 3.12 mg/kg/injection, schedule: Q01DX009 (ip), vehicle: saline); 100 % of control under setting [4]; 102 % of control under setting [5]; 100 % of control under setting [6]; 100 % of control under setting [8].

On to `CCOC(=O)N1CCN(CCCCCOc2ccccc2C2CCCCC2)CC1`, for which, under setting [7], the T/C was 103 % of control.

As for `CC(NC(=O)c1ccccc1)C(=O)NC(CSC(c1ccccc1)c1ccccc1)C(=O)O` (stereo unspecified), the T/C was 107 % of control (dose: 12.5 mg/kg/injection, schedule: Q04DX003 (ip), vehicle: saline); 110 % of control (dose: 25.0 mg/kg/injection, schedule: Q04DX003 (ip), vehicle: saline); 89 % of control (dose: 50.0 mg/kg/injection, schedule: Q04DX003 (ip), vehicle: saline).

Take `CCCC(=O)Nc1ncnc2c1ncn2C1OC2COP(=O)(O)OC2C1OC(=O)CCC` (stereo unspecified): the T/C runs as follows: under setting [8], 100 % of control; under setting [9], 94 % of control; under setting [10], 89 % of control.

As for `COc1cccc2c1C(=O)c1c(O)c3c(c(O)c1C2=O)C[C@@](O)(C(C)O)C[C@@H]3OC1CC(N2CCOCC2C#N)C(O)C(C)O1` (stereo partly specified), the T/C is 110 % of control (dose: 4.69 micrograms/kg/injection, schedule: Q01DX001 (ip), vehicle: water); 115 % of control (dose: 9.37 micrograms/kg/injection, schedule: Q01DX001 (ip), vehicle: water); 124 % of control (dose: 37.5 micrograms/kg/injection, schedule: Q01DX001 (ip), vehicle: water).

In the case of `CC(C)(C)NC(=O)CCC(CC(=O)NC(C)(C)C)S(=O)(=O)O` (stereo unspecified), the T/C under setting [8] is 118 % of control, the T/C under setting [9] was 112 % of control and the T/C under setting [10] was 93 % of control.

On to `CCC(=O)O[C@H]1CC[C@H]2[C@@H]3CCC4=CC(=O)CC[C@]4(C)[C@H]3CC[C@]12C`, for which the T/C is 96 % of control under setting [1]; 100 % of control (dose: 40.0 mg/kg/injection, schedule: Q02DX009 (ip), vehicle: Klucel (hydroxypropylcellulose) (HPC)); 90 % of control under setting [2]; 105 % of control (dose: 80.0 mg/kg/injection, schedule: Q02DX009 (ip), vehicle: Klucel (hydroxypropylcellulose) (HPC)); 95 % of control under setting [3]; 91 % of control under setting [11]. Further, the T/C (dose: 320.0 mg/kg/injection, schedule: Q02DX009 (ip), vehicle: Klucel (hydroxypropylcellulose) (HPC)) was 105 % of control and the T/C (dose: 400.0 mg/kg/injection, schedule: Q01DX009 (ip), vehicle: Klucel (hydroxypropylcellulose) (HPC)) is 94 % of control.

On to `Nc1ccc2ncccc2c1`, for which the T/C is, setting by setting: under setting [5], 111 % of control; under setting [6], 105 % of control; under setting [8], 109 % of control.

As for `COc1c([N+](=O)[O-])cc(C(=O)O)cc1[N+](=O)[O-]`, the T/C under setting [3] is 92 % of control and the T/C under setting [11] was 92 % of control.

For `CNC(C)Cc1ccccc1` (stereo unspecified), the T/C is 95 % of control (dose: 3.75 mg/kg/injection, schedule: Q01DX009 (ip), vehicle: saline); 95 % of control (dose: 15.0 mg/kg/injection, schedule: Q01DX009 (ip), vehicle: saline); 95 % of control (dose: 30.0 mg/kg/injection, schedule: Q01DX009 (ip), vehicle: saline).

In the case of `CCN(CC)CC#N`, the T/C (dose: 1.0 mg/kg/injection, schedule: Q01DX009 (ip), vehicle: saline) was 94 % of control; the T/C (dose: 2.0 mg/kg/injection, schedule: Q01DX009 (ip), vehicle: saline) is 105 % of control; the T/C (dose: 4.0 mg/kg/injection, schedule: Q01DX009 (ip), vehicle: saline) was 104 % of control.

Consider `Nc1nccnc1N`, for which the T/C is 102 % of control under setting [7] and 88 % of control (dose: 100.0 mg/kg/injection, schedule: Q01DX009 (ip), vehicle: saline with Tween-80).
